ChEMBL document CHEMBL3045335, “Synthesis, antimicrobial, and antioxidant activities of some new indole analogues containing pyrimidine and fused pyrimidine systems” (Med Chem Res, 2012)
Values after ≈ are worked out from the molar mass of the structure shown.

Experiments:
Format in all cases: functional
Aspergillus oryzae = test: Antifungal activity against Aspergillus oryzae at 1 mg/ml after 72 hr by agar well diffusion method; details: read-out: IZ
Klebsiella pneumoniae = test: Antibacterial activity against Klebsiella pneumoniae at 1 mg/ml after 24 hr by agar well diffusion method; details: for zone of inhibition at 1000 µg/mL: read-out: IZ
Pseudomonas aeruginosa = test: Antibacterial activity against Pseudomonas aeruginosa at 1 mg/ml after 24 hr by agar well diffusion method; details: for zone of inhibition at 1000 µg/mL: read-out: IZ
Staphylococcus aureus = test: Antibacterial activity against Staphylococcus aureus at 1 mg/ml after 24 hr by agar well diffusion method; details: for zone of inhibition at 1000 µg/mL: read-out: IZ
[1] = tested on: Radical scavenging activity; test: Antioxidant activity assessed as DPPH radical scavenging activity at 100 ug/ml by spectrophotometric analysis
[2] = tested on: Radical scavenging activity; test: Antioxidant activity assessed as DPPH radical scavenging activity by spectrophotometric analysis
Aspergillus terreus = test: Antifungal activity against Aspergillus terreus at 1 mg/ml after 72 hr by agar well diffusion method; details: read-out: IZ
Aspergillus niger = test: Antifungal activity against Aspergillus niger at 1 mg/ml after 72 hr by agar well diffusion method; details: read-out: IZ

Row | Compound | zone of inhibition at 1000 µg/mL (Aspergillus oryzae) [mm] | zone of inhibition at 1000 µg/mL (Klebsiella pneumoniae) [mm] | zone of inhibition at 1000 µg/mL (Pseudomonas aeruginosa) [mm] | zone of inhibition at 1000 µg/mL (Staphylococcus aureus) [mm] | Activity [1] [%] | IC50 [2] [µg/mL] | zone of inhibition at 1000 µg/mL (Aspergillus terreus) [mm] | zone of inhibition at 1000 µg/mL (Aspergillus niger) [mm] | inhibition zone (IZ) (Klebsiella pneumoniae) [mm] | inhibition zone (IZ) (Pseudomonas aeruginosa) [mm] | inhibition zone (IZ) (Staphylococcus aureus) [mm]
1 | N#Cc1c(-c2c(-c3ccccc3)[nH]c3ccc(Cl)cc23)[nH]c(=S)[nH]c1=O | 12 | 14 | 10 | 14 | 79.7 | 16.43 (≈ 43.4 µM) | 9 | 10 | – | – | –
2 | Cc1ccc2[nH]c(-c3ccccc3)c(-c3[nH]c(=S)[nH]c(=S)c3C#N)c2c1 | 9 | 8 | 10 | 9 | – | – | 10 | 9 | – | – | –
3 | Cc1ccc2[nH]c(-c3ccccc3)c(-c3nc(NN)nc(NN)c3C#N)c2c1 | 9 | 12 | 10 | 10 | – | – | 11 | 11 | – | – | –
4 | Cc1ccc2[nH]c(-c3ccccc3)c(-c3c(C#N)c4nnnn4c4nnnn34)c2c1 | 9 | 11 | 10 | 10 | – | – | 12 | 9 | – | – | –
5 | N#Cc1c(-c2c(-c3ccccc3)[nH]c3ccc(Cl)cc23)[nH]c(=S)[nH]c1=S | 11 | 9 | 10 | 12 | – | – | 10 | 11 | – | – | –
6 | Cc1ccc2[nH]c(-c3ccccc3)c(-c3nc(NN)nc4[nH]nc(N)c34)c2c1 | 9 | 13 | 12 | 11 | – | – | 10 | 10 | – | – | –
7 | Cc1ccc2[nH]c(-c3ccccc3)c(-c3[nH]c(=S)[nH]c(=O)c3C#N)c2c1 | 11 | 11 | 10 | 12 | – | – | 11 | 13 | – | – | –
8 | N#Cc1c(NN)nc(NN)nc1-c1c(-c2ccccc2)[nH]c2ccccc12 | 10 | 11 | 10 | 8 | – | – | 11 | 10 | – | – | –
9 | OC(Cn1cncn1)(Cn1cncn1)c1ccc(F)cc1F [FLUCONAZOLE] | 14 | – | – | – | – | – | 15 | 14 | – | – | –
10 | CC(C)(C)c1cc(O)ccc1O [E319] | – | – | – | – | – | 14.46 (≈ 87 µM) | – | – | – | – | –
11 | GENTAMICIN | – | – | – | – | – | – | – | – | 15 | 16 | 15
12 | COc1ccc(O)c(C(C)(C)C)c1.COc1ccc(O)cc1C(C)(C)C [BUTYLATED HYDROXYANISOLE] | – | – | – | – | – | 14.35 | – | – | – | – | –
13 | NNc1nc(-c2c(-c3ccccc3)[nH]c3ccccc23)c2c(N)n[nH]c2n1 | 12 | 12 | 11 | 12 | – | – | 10 | 12 | – | – | –
14 | N#Cc1c(-c2c(-c3ccccc3)[nH]c3ccc(Cl)cc23)n2nnnc2n2nnnc12 | 10 | 13 | 12 | 14 | – | – | 11 | 13 | – | – | –
15 | N#Cc1c(NN)nc(NN)nc1-c1c(-c2ccccc2)[nH]c2ccc(Cl)cc12 | 10 | 10 | 13 | 11 | – | – | 10 | 8 | – | – | –
16 | N#Cc1c(-c2c(-c3ccccc3)[nH]c3ccccc23)[nH]c(=S)[nH]c1=O | 10 | 12 | 11 | 11 | – | – | 10 | 10 | – | – | –
17 | N#Cc1c(-c2c(-c3ccccc3)[nH]c3ccccc23)n2nnnc2n2nnnc12 | 7 | 12 | 14 | 14 | – | – | 10 | 10 | – | – | –
18 | N#Cc1c(-c2c(-c3ccccc3)[nH]c3ccccc23)[nH]c(=S)[nH]c1=S | 10 | 8 | 7 | 8 | – | – | 11 | 11 | – | – | –
19 | NNc1nc(-c2c(-c3ccccc3)[nH]c3ccc(Cl)cc23)c2c(N)n[nH]c2n1 | 13 | 9 | 13 | 13 | – | – | 10 | 9 | – | – | –
